Values of other authors in patent US6720307B2, “Glycosylated analogs of fusidic acid” (The University of Michigan, priority 1996, dated 2004).

What was measured:
HIV = details: in vitro
[1] = tested on: methicillin-resistant staphylococci
enterobacteria = details: all enterobacteria

SMILES: CC(=O)O[C@H]1C[C@@]2(C)[C@@H](C[C@@H](O)[C@H]3[C@@]4(C)CC[C@@H](O)[C@@H](C)[C@@H]4CC[C@@]32C)/C1=C(\CCC=C(C)C)C(=O)O [fusidic acid, 3α,11α,16β-Trihydroxy-29-nor-8α,9β,13α,14β-dammara-17(20),24-dien-21-oic acid 16-acetate]
- effectiveness against HIV (HIV): in vitro effectiveness
- susceptibility to fusidic acid (Psuedomonas spp.): resistant
- susceptibility to fusidic acid (S. epidermidis): highly susceptible
- efficacy (Nocardia spp.): moderate efficacy
- susceptibility to fusidic acid (fungi): resistant
- susceptibility to fusidic acid (Neisseria): susceptible
- susceptibility to fusidic acid [1]: usually susceptible
- efficacy (mycobacteria): moderate efficacy
- susceptibility to fusidic acid (Bacteroides spp.): susceptible
- susceptibility to fusidic acid (Gram-negative bacilli): resistant
- susceptibility to fusidic acid (Clostridium spp.): highly susceptible
- susceptibility to fusidic acid (Staphylococcus aureus): highly susceptible
- susceptibility to fusidic acid (corynebacteria): highly susceptible
- susceptibility to fusidic acid (enterobacteria): resistant
- efficacy (streptococci): moderate efficacy
